In PubChem BioAssay AID540269 (Sanford-Burnham Center for Chemical Genomics, 2011):
Active and inactive are the calls of the source. The rule behind the calls is not given here.

What follows are molecules tested against glucose-6-phosphate dehydrogenase-6-phosphogluconolactonase (Plasmodium falciparum 3D7) (assay: inhibition of P. falciparum G6PD activity – biochemical, kinetic NADPH detection, orthogonal assay, dose response (AID 540269)). Details: purified PfG6PD-6PGL.

How did the IC50 turn out when `COc1cccc(/C=N/NC(=O)c2c(C)nc3ccc(Br)cn23)c1` was run?
The IC50 was 52.3 µM.

`O=c1[nH]c(NCCO)c(N=Cc2ccccc2)c(=O)[nH]1` was tested. Which IC50 did it give?
The IC50 was > 80 µM (inactive).

With `COc1ccc2ccccc2c1C1CC(=O)N2CN(C3CCCCC3)CSC2=C1C#N` (stereo not drawn) as the molecule, how does the IC50 read?
Its IC50 is > 80 µM (inactive).

For `CC(=O)OCC1(C)CN(c2ccccc2)NC1=O` (stereo not drawn), which IC50 is on record?
Its IC50 is > 80 µM (inactive).

Which IC50 does the source give for `CCn1c([N+](=O)[O-])nc2c1c(=O)[nH]c(=O)n2C` here?
The IC50 was > 80 µM (inactive).

Which IC50 does the source give for `CS(=O)(=O)c1ccc(N)c(SSc2cc(S(C)(=O)=O)ccc2N)c1` here?
Its IC50 is 15.2 µM.

`Cc1ccc(NC(=O)Cn2sc3nc(C)cc(C)c3c2=O)c(Cl)c1` was tested. Which IC50 did it give?
The IC50 was > 80 µM (inactive).

Which IC50 does the source give for `CC1CN(c2ccccc2)NC1=O` (stereo not drawn) here?
Its IC50 is > 80 µM (inactive).

For `C=CCN=c1scc(-c2ccco2)n1/N=C/c1ccc(O)c(O)c1O`, which IC50 is on record?
Its IC50 is 58.3 µM.

`Cc1ccc(/C=C/C(=O)NC2CCCCCCC2)o1` was tested. Which IC50 did it give?
Its IC50 is > 80 µM (inactive).

Which IC50 does the source give for `C=CCc1ccccc1OCC(=O)N/N=C/c1ccccc1OCC` here?
Its IC50 is > 80 µM (inactive).

How did the IC50 turn out when `ClC(Cl)(c1nnnn1-c1ccccc1)c1nnnn1-c1ccccc1` was run?
The IC50 was 61.2 µM.

For `O=[N+]([O-])c1cccc(SSc2cccc([N+](=O)[O-])c2)c1`, which IC50 is on record?
Its IC50 is 71.5 µM.

`Cc1ccc(/C=C/C(=O)N2CCN(S(=O)(=O)c3ccc(C)c(C)c3)CC2)o1` was tested. Which IC50 did it give?
Its IC50 is > 80 µM (inactive).

Which IC50 does the source give for `COc1cc(CNc2ccc(N3CCCC3)cc2)ccc1OCc1ccccc1F` here?
The IC50 was > 80 µM (inactive).

For `COc1ccc(CN(C)S(=O)(=O)c2nnc(NC(=O)c3cccc(C)c3)s2)cc1OC`, which IC50 is on record?
Its IC50 is 22.2 µM.

`CCOc1ccc(N(CC(=O)N/N=C/c2cc([N+](=O)[O-])ccc2Cl)S(C)(=O)=O)cc1` was tested. Which IC50 did it give?
Its IC50 is > 80 µM (inactive).

For `CC1(C)Cc2c(sc3nc4n(-c5ccccc5)c(=O)c(CCC(=O)O)nn4c(=O)c23)CO1`, which IC50 is on record?
The IC50 was 11.7 µM.

With `O=C1CCC[C@@H]2[C@@H](Cc3ccccc3)[C@H](N3CCN(c4ccccc4)CC3)C[C@@H]3CCN1[C@@H]32` as the molecule, how does the IC50 read?
The IC50 was > 80 µM (inactive).

For `CCCNC(=O)Cn1sc2nc(C)cc(C)c2c1=O`, which IC50 is on record?
The IC50 was 51.1 µM.

`O=C(O)c1ccc(-n2c(-c3cc(-c4ccco4)[nH]n3)n[nH]c2=S)cc1` was tested. Which IC50 did it give?
The IC50 was 40.8 µM.

For `Clc1nssc1=Nc1nncs1`, which IC50 is on record?
Its IC50 is 33.4 µM.

Which IC50 does the source give for `Nn1c(CSc2nc3ccccc3o2)nnc1CSc1nc2ccccc2o1` here?
The IC50 was > 80 µM (inactive).

For `Brc1cc2[nH]cnc2c2ccccc12`, which IC50 is on record?
The IC50 was > 80 µM (inactive).

Which IC50 does the source give for `COc1ccc(C(=O)Nc2cc(Cl)ccc2C(=O)O)cc1` here?
Its IC50 is 17.7 µM.

With `CCNc1ccccc1CP(=O)(c1ccccc1)c1ccccc1O` (stereo not drawn) as the molecule, how does the IC50 read?
The IC50 was > 80 µM (inactive).

Which IC50 does the source give for `COc1ccccc1N1CSC2=C(C#N)C(c3ccc(SC)cc3)CC(=O)N2C1` (stereo not drawn) here?
Its IC50 is 62.6 µM.

`CCOc1ccc(S(=O)(=O)Nc2cc(SCC(=O)O)c(O)c3ccccc23)cc1` was tested. Which IC50 did it give?
Its IC50 is 48.2 µM.

For `Cc1ccc(NC(=O)c2cc(N3C(=O)C=CC3=O)ccc2N2CCOCC2)cc1`, which IC50 is on record?
The IC50 was > 80 µM (inactive).

How did the IC50 turn out when `COC(=O)CCC(=O)OC1(C)C(=O)C2=CN(C3CC3)C(c3ccc(OC)cc3)=CC2=C(Br)C1=O` (stereo not drawn) was run?
Its IC50 is 45.8 µM.

How did the IC50 turn out when `O=C(NC1=CC(=O)c2ccccc2C1=O)c1ccccc1` was run?
The IC50 was 38.2 µM.

Which IC50 does the source give for `N#C/C(C(=O)Nc1ccc(Cl)cc1)=C(/S)Nc1ccccc1` here?
The IC50 was 41.5 µM.

With `COc1cc(SSc2cc(OC)cc([N+](=O)[O-])c2N)c(N)c([N+](=O)[O-])c1` as the molecule, how does the IC50 read?
Its IC50 is 44.6 µM.

With `O=C(CNc1ccc2c(c1)OCO2)N/N=C\c1cn(Cc2ccccc2)c2ccccc12` as the molecule, how does the IC50 read?
Its IC50 is > 80 µM (inactive).

How did the IC50 turn out when `COc1cc(/C=C2\CC/C(=C\c3cc(OC)c(O)c(OC)c3)C2=O)cc(OC)c1O` was run?
Its IC50 is > 80 µM (inactive).

With `Cc1ccsc1/C=N/NC(=O)c1cccc(S(=O)(=O)Nc2ccccc2Cl)c1` as the molecule, how does the IC50 read?
Its IC50 is > 80 µM (inactive).

`O=c1c2ccccc2sn1-c1ccc(Cl)cc1` was tested. Which IC50 did it give?
The IC50 was 17.1 µM.

With `COc1ccc(-n2sc3ccccc3c2=O)cc1` as the molecule, how does the IC50 read?
Its IC50 is 14.7 µM.
